Results reported in patent US9617267B2, “Compounds and methods for kinase modulation, and indications therefor” (Plexxikon Inc., priority 2009, dated 2017).
Read-outs that look alike come from different tables or passages of the source.

Experiments:
CYP1A2 = CYP1A2 (Homo sapiens (Human), UniProt P05177); test: CYP enzyme inhibition, fluorescent substrate (CEC)
How it was run: (§1)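 IC50 derived from loss of fluorescent metabolite across a 10-point 1:1 dilution series. CYP2D6: 1.5 pmol enzyme, 1.5 μM AMMC, 30 min at 37 °C, 409/530 nm; CYP1A2: 0.5 pmol, 5 μM CEC, 15 min, 409/460 nm. Compounds pre-incubated 10 min in NADPH-regenerating mix.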

CYP2D6 = CYP2D6 (Homo sapiens (Human), UniProt P10635); test: CYP enzyme inhibition, fluorescent substrate (AMMC); format: in vitro ADME; settings: read-out: Cyp IC50 2D6
How it was run: as §1

[1] = Relative solubility by turbidity threshold concentration in aqueous buffers (pH 1.5, 4.5, 6.8, 7.4); format: physicochemical; settings: for turbidity threshold (L, M, H) 1.4: pH 1.4 [sic] (method: SGF pH 1.5); for turbidity threshold (L, M, H) 4.5: pH 4.5 (SIF); for turbidity threshold (L, M, H) 6.8: pH 6.8 (SIF); for turbidity threshold (L, M, H) 7.4: pH 7.4 (HEPES)
How it was run: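 Solubility class (high >250 μM, moderate 31.3–250 μM, low <31.3 μM) comes from the concentration where absorbance reaches a 0.01 threshold, averaged across 490/535/650 nm. Samples were compound dilutions from DMSO stock, 1 μL into 99 μL buffer at pH 1.5, 4.5, 6.8 or 7.4.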

B-Raf V600E = B-Raf V600E (Homo sapiens (Human), UniProt P15056, V600E); test: B-Raf V600E kinase activity biochemical assay (AlphaScreen, biotin-MEK1 phosphorylation); settings: for IC50: B-Raf V600E; for Biochemical activity ratio V600E/C: ratio of IC50 B-Raf V600E / c-Raf-1
How it was run: (§2)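 Compounds from a 0.1 mM DMSO stock were tested at 8 serially diluted points. Kinase reactions with 100 μM ATP (final) ran 45 min at room temperature, then were stopped with EDTA buffer containing anti-phospho-MEK1/2 antibody plus streptavidin donor and protein A acceptor beads.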

CYP3A4(BFC) = CYP3A4(BFC) (Homo sapiens (Human), UniProt P08684); test: CYP enzyme inhibition, fluorescent substrate BFC
How it was run: (§3)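 First, 100 mM DMSO stocks are diluted into acetonitrile, then twofold through co-factor mix for 10 points. Next, mixtures are preincubated 10 min at 37 °C.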

c-Raf-1 = c-Raf-1 (Homo sapiens, UniProt P04049); test: c-Raf-1 kinase activity biochemical assay (AlphaScreen, biotin-MEK1 phosphorylation)
How it was run: as §2

B-Raf [2] = target: B-Raf (Homo sapiens (Human), UniProt P15056); test: B-Raf kinase activity biochemical assay (AlphaScreen, biotin-MEK1 phosphorylation); settings: B-Raf
How it was run: as §2

B-Raf [3] = test: as above; settings: for Biochemical activity ratio B/V600E: ratio of IC50 B-Raf / B-Raf V600E; for Biochemical activity ratio B/C: ratio of IC50 B-Raf / c-Raf-1
How it was run: as §2

CYP3A4(BQ) = CYP3A4(BQ) (Homo sapiens (Human), UniProt P08684); test: CYP enzyme inhibition, fluorescent substrate BQ
How it was run: as §3

CYP2C19 = CYP2C19 (Homo sapiens (Human), UniProt P33261); test: CYP enzyme inhibition, fluorescent substrate (CEC)
How it was run: as §3

CYP2C9 = CYP2C9 (Homo sapiens (Human), UniProt P11712); test: CYP enzyme inhibition, fluorescent substrate (MFC)
How it was run: as §3

[4] = read-out: Cyp IC50 3A4(BFC), CYP3A4, substrate BFC
[5] = read-out: Cyp IC50 3A4(BQ), CYP3A4, substrate BQ
[6] = read-out: Cyp IC50 2C19, CYP2C19, substrate CEC
[7] = read-out: Cyp IC50 2C9, CYP2C9, substrate MFC
[8] = read-out: Cyp IC50 1A2, CYP1A2, substrate CEC

Sequence of B-Raf (Homo sapiens (Human), UniProt P15056) (P15056 whole entry): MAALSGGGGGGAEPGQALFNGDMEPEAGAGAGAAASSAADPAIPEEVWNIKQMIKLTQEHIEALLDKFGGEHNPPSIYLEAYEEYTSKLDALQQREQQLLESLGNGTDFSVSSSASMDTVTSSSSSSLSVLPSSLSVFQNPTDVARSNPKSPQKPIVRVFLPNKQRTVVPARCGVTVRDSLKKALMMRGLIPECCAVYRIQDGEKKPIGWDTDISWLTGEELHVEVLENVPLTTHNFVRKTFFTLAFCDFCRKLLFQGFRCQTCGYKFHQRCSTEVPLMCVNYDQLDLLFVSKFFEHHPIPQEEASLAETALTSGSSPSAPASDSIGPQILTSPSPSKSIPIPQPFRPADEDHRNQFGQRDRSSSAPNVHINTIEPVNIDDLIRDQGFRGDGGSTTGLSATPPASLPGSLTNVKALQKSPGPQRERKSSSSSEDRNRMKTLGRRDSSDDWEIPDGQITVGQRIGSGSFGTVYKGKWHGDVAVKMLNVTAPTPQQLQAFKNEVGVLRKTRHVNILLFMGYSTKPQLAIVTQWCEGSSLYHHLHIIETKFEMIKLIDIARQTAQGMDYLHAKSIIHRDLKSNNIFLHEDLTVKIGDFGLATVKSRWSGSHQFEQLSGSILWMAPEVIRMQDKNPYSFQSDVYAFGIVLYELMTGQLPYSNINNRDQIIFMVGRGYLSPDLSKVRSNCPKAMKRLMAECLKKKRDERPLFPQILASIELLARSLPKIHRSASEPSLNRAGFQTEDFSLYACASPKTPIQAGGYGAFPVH
Sequence of CYP2C9 (P11712 whole entry): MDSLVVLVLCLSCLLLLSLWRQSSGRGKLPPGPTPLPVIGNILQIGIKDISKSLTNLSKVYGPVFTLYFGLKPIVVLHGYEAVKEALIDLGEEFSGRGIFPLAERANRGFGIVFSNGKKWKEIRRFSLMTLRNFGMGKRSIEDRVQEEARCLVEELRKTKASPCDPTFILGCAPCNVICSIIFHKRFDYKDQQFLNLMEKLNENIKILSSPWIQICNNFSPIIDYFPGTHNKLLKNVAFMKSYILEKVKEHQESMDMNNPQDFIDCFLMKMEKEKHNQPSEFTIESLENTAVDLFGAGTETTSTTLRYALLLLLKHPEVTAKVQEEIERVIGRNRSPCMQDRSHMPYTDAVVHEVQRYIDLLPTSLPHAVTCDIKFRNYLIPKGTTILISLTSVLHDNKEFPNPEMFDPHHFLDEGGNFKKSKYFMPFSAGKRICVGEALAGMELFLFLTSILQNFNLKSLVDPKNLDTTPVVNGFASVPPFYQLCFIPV
Sequence of c-Raf-1 (P04049 whole entry, looked up): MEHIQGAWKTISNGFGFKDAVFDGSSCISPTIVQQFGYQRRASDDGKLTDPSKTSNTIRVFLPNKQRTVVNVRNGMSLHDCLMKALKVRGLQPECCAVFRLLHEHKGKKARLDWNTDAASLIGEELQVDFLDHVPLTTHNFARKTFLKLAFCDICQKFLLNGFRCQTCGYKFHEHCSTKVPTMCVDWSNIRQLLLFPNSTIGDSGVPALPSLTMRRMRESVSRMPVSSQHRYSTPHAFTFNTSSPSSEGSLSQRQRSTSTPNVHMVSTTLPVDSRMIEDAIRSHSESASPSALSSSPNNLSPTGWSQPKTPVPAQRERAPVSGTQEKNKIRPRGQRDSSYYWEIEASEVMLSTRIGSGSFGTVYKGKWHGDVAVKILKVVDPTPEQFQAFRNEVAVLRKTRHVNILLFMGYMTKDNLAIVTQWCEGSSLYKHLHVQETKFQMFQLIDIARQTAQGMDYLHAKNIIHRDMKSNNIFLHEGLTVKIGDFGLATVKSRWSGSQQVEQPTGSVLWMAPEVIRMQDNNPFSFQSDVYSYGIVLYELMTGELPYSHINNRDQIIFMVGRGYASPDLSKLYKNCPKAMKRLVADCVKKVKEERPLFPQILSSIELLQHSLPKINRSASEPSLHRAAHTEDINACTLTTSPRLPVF
Sequence of CYP1A2 (P05177 whole entry): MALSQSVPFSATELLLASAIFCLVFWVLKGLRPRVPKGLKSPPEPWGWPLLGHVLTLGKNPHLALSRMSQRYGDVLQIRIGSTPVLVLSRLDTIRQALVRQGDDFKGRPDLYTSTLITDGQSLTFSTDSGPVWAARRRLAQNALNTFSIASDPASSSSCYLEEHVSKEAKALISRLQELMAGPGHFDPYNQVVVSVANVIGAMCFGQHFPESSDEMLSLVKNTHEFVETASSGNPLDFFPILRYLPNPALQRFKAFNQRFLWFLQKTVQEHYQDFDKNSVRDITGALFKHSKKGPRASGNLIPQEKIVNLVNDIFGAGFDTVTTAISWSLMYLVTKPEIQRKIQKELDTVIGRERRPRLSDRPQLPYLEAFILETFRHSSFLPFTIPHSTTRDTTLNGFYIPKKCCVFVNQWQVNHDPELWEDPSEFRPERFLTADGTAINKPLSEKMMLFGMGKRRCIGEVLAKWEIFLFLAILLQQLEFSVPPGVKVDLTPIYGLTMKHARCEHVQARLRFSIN
Sequence of CYP3A4(BFC) (P08684 whole entry): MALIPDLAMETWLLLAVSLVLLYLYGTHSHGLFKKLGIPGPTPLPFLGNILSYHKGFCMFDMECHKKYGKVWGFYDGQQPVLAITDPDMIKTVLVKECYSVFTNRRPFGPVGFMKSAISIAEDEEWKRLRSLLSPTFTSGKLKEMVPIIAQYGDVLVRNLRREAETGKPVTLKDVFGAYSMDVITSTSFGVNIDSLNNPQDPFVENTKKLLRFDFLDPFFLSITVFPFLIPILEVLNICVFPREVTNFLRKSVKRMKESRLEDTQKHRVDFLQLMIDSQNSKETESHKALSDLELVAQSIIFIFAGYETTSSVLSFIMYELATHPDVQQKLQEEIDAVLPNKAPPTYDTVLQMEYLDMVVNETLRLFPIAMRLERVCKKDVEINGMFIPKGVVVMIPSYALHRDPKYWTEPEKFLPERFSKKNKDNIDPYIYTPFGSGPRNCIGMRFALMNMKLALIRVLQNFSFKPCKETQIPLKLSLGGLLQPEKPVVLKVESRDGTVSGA
Sequence of CYP3A4(BQ) (P08684 whole entry): as above
Sequence of B-Raf V600E (P15056 whole entry V600E): as the sequence (P15056 whole entry) above, with V600E counted along it
Sequence of CYP2D6 (P10635 whole entry): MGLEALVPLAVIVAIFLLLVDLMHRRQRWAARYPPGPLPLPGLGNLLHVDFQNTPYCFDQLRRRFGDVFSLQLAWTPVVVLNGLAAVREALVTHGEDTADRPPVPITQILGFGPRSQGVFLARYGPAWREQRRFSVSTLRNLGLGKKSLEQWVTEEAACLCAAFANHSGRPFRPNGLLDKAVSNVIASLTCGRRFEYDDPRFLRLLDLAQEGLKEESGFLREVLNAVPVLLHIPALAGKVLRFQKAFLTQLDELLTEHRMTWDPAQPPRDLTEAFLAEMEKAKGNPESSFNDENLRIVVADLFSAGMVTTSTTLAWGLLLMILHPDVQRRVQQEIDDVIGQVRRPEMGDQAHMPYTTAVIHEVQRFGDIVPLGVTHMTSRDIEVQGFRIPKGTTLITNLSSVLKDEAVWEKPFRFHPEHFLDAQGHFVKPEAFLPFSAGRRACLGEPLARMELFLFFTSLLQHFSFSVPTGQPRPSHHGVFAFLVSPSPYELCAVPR
Sequence of CYP2C19 (P33261 whole entry): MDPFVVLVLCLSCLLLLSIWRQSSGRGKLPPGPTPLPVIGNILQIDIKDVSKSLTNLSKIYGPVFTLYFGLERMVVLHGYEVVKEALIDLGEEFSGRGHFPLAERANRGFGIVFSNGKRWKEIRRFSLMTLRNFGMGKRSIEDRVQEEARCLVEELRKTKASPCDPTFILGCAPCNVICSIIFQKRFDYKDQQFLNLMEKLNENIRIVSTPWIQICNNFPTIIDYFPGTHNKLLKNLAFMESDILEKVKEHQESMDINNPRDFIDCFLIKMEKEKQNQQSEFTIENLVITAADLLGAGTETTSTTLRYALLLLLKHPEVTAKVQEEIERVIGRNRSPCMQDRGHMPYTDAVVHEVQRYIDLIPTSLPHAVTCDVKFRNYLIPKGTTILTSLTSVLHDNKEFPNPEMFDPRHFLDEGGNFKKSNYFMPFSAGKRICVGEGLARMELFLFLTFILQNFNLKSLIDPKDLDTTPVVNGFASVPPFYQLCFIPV

Structure (SMILES)	IC50 (CYP1A2; human, 15 min) [µM]	IC50 (CYP2D6) [µM]	turbidity threshold (L, M, H) 1.4 [1]	turbidity threshold (L, M, H) 4.5 [1]	turbidity threshold (L, M, H) 6.8 [1]	turbidity threshold (L, M, H) 7.4 [1]	IC50 (B-Raf V600E) [µM]	Biochemical activity ratio V600E/C (B-Raf V600E)	IC50 (CYP3A4(BFC); [4]) [µM]	IC50 (c-Raf-1) [µM]	IC50 (B-Raf [2]) [µM]	Biochemical activity ratio B/V600E (B-Raf [3])	Biochemical activity ratio B/C (B-Raf [3])	IC50 (CYP3A4(BQ); [5]) [µM]	IC50 (CYP2C19; [6]) [µM]	IC50 (CYP2C9; [7]) [µM]	further results
CC(C)Nc1ncnc2[nH]cc(C(=O)c3c(F)ccc(NS(=O)(=O)c4ccc(C(C)C)cc4)c3F)c12 [P-1044, N-[2,4-Difluoro-3-(4-isopropylamino-7H-pyrrolo[2,3-d]pyrimidine-5-carbonyl)-phenyl]-4-isopropyl-benzenesulfonamide]	> 10	> 10	M (moderate solubility if the threshold concentration is 31.3 μM to 250 μM)	M (moderate solubility if the threshold concentration is 31.3 μM to 250 μM)	M (moderate solubility if the threshold concentration is 31.3 μM to 250 μM)	M (moderate solubility if the threshold concentration is 31.3 μM to 250 μM)	> 0.1	>10	> 10	< 0.1	< 0.1	0.1-10	>10	> 10	< 5	> 10	
CCCS(=O)(=O)Nc1ccc(F)c(C(=O)c2c[nH]c3ncnc(NC4COC4)c23)c1F [P-1060, Propane-1-sulfonic acid {2,4-difluoro-3-[4-(oxetan-3-ylamino)-7H-pyrrolo[2,3-d]pyrimidine-5-carbonyl]-phenyl}-amide]	> 10	> 10	H (high solubility if the threshold concentration is >250 μm)	M (moderate solubility if the threshold concentration is 31.3 μM to 250 μM)	H (high solubility if the threshold concentration is >250 μm)	H (high solubility if the threshold concentration is >250 μm)	< 0.1	0.1-10	> 10	< 0.1	< 0.1	0.1-10	>10	> 10	> 10	> 10	
O=C(c1c(F)ccc(NS(=O)(=O)c2ccc(C(F)(F)F)cc2)c1F)c1c[nH]c2ncnc(NC3COC3)c12 [P-1050, N-{2,4-Difluoro-3-[4-(oxetan-3-ylamino)-7H-pyrrolo[2,3-d]pyrimidine-5-carbonyl]-phenyl}-4-trifluoromethyl-benzenesulfonamide]		> 10	H (high solubility if the threshold concentration is >250 μm)	M (moderate solubility if the threshold concentration is 31.3 μM to 250 μM)	M (moderate solubility if the threshold concentration is 31.3 μM to 250 μM)	M (moderate solubility if the threshold concentration is 31.3 μM to 250 μM)	< 0.1	>10	> 10	< 0.1	< 0.1	0.1-10	>10	> 10	> 10	> 10	IC50 (CYP1A2; [8]): > 10 µM
Cn1cc(Nc2ncnc3[nH]cc(C(=O)c4c(F)ccc(NS(=O)(=O)c5ccc(C(F)(F)F)cc5)c4F)c23)cn1 [P-1062, N-{2,4-Difluoro-3-[4-(1-methyl-1H-pyrazol-4-ylamino)-7H-pyrrolo[2,3-d]pyrimidine-5-carbonyl]-phenyl}-4-trifluoromethyl-benzenesulfonamide]	> 10	> 10	L (low solubility if the threshold concentration is <31.3 μM)	L (low solubility if the threshold concentration is <31.3 μM)	L (low solubility if the threshold concentration is <31.3 μM)	L (low solubility if the threshold concentration is <31.3 μM)	< 0.1	>10		< 0.1	< 0.1	0.1-10	>10		> 10	< 5	IC50 (CYP3A4(BFC)): 5 to 10 µM; IC50 (CYP3A4(BQ)): 5 to 10 µM
CCCS(=O)(=O)Nc1ccc(F)c(C(=O)c2c[nH]c3ncc(F)c(C#N)c23)c1F [P-2003, Propane-1-sulfonic acid [3-(4-cyano-5-fluoro-1H-pyrrolo[2,3-b]pyridine-3-carbonyl)-2,4-difluoro-phenyl]-amide]		> 10	M (moderate solubility if the threshold concentration is 31.3 μM to 250 μM)	M (moderate solubility if the threshold concentration is 31.3 μM to 250 μM)	M (moderate solubility if the threshold concentration is 31.3 μM to 250 μM)	M (moderate solubility if the threshold concentration is 31.3 μM to 250 μM)	< 0.1	0.1-10		< 0.1	< 0.1	0.1-10	0.1-10				IC50 (CYP1A2): > 10 µM; IC50 (CYP3A4(BFC)): 5 to 10 µM; IC50 (CYP3A4(BQ)): 5 to 10 µM; IC50 (CYP2C19): > 10 µM; IC50 (CYP2C9): < 5 µM
O=C(c1c(F)ccc(NS(=O)(=O)c2ccc(C(F)(F)F)cc2)c1F)c1c[nH]c2ncnc(O)c12 [P-1012, N-[2,4-Difluoro-3-(4-hydroxy-7H-pyrrolo[2,3-d]pyrimidine-5-carbonyl)-phenyl]-4-trifluoromethyl-benzenesulfonamide]		> 10	M (moderate solubility if the threshold concentration is 31.3 μM to 250 μM)	M (moderate solubility if the threshold concentration is 31.3 μM to 250 μM)	H (high solubility if the threshold concentration is >250 μm)	H (high solubility if the threshold concentration is >250 μm)	> 0.1	>10	> 10	< 0.1	> 0.1	0.1-10	0.1-10	> 10	> 10	> 10	IC50 (CYP1A2; [8]): > 10 µM
CCCc1ccc(S(=O)(=O)Nc2ccc(F)c(C(=O)c3c[nH]c4ncnc(NC5CCOCC5)c34)c2F)cc1 [P-1046, N-{2,4-Difluoro-3-[4-(tetrahydro-pyran-4-ylamino)-7H-pyrrolo[2,3-d]pyrimidine-5-carbonyl]-phenyl}-4-propyl-benzenesulfonamide]	> 10	> 10	M (moderate solubility if the threshold concentration is 31.3 μM to 250 μM)	L (low solubility if the threshold concentration is <31.3 μM)	L (low solubility if the threshold concentration is <31.3 μM)	L (low solubility if the threshold concentration is <31.3 μM)	> 0.1	>10	> 10	< 0.1	< 0.1	0.1-10	>10	> 10	> 10	> 10	
CCc1ccc(S(=O)(=O)Nc2ccc(F)c(C(=O)c3c[nH]c4ncnc(NC(C)C)c34)c2F)cc1 [P-1042, N-[2,4-Difluoro-3-(4-isopropylamino-7H-pyrrolo[2,3-d]pyrimidine-5-carbonyl)-phenyl]-4-ethyl-benzenesulfonamide]	> 10	> 10	M (moderate solubility if the threshold concentration is 31.3 μM to 250 μM)	L (low solubility if the threshold concentration is <31.3 μM)	L (low solubility if the threshold concentration is <31.3 μM)	L (low solubility if the threshold concentration is <31.3 μM)	< 0.1	>10	> 10	< 0.1	< 0.1	0.1-10	0.1-10	> 10		> 10	IC50 (CYP2C19): 5 to 10 µM
